Like-named read-outs stand apart in the source and are kept apart here.
Tests used:
[1] = Cytotoxicity in MT-2 cells, flow cytometry cell counts and viability; assay type: cell-based, human; conditions: human; MT-2 cells, 72 hrs
Protocol: MT-2 cells were incubated with drug for 72 hrs and harvested. Flow count beads (Beckman Coulter, Miami, Fla.) were added to the cell suspension followed by propidium iodide staining and analysis using flow cytometer and the 50% cytotoxic concentration (CC50) was calculated from the cell counts and viability.

[2] = tested on: Copenhagen strain of vaccinia virus; assay: microbe, parasite or virus in culture; assay type: cell-based; conditions: for EC50: Orthopoxvirus vaccinia, HFF, 168 h; for Selectivity Index: vaccinia virus (Copenhagen), HFF cells
HPV-11 = HPV-11 origin replication in HEK 293 cells, qPCR; assay type: cell-based; conditions: for EC50: HEK293, HPV-11 origin replication in HEK 293 cells, 48 hr, qPCR; for Selectivity Index: HPV-11, HEK 293 cells
Protocol: (§1) An origin-containing plasmid was co-transfected with HPV-11 E1 and E2 protein expression vectors into HEK 293 cells. At 4 hr post-transfection, cells were treated with compound dilutions and the cells were incubated for 48 hr. Replication of the virus origin was detected with DpnI and exonuclease III to remove unreplicated input bacterial plasmid DNA. Remaining replicated DNA was quantified by qPCR. Toxicity was determined by trypan blue exclusion.

[3] = Toxicity in HEK 293 cells by trypan blue exclusion (HPV-11 example); assay type: cell-based; conditions: human
Protocol: as §1

HPV-16 = HPV-16 origin replication in HEK 293 cells, qPCR; assay type: cell-based; conditions: for EC50: HEK293, HPV-16 origin replication in HEK 293 cells, 48 hr, qPCR, read-out: EC50; for Selectivity Index: HPV-16, HEK 293 cells
Protocol: as §1, with “HPV-16” for “HPV-11”

[4] = Toxicity in HEK 293 cells by trypan blue exclusion (HPV-16 example); assay type: cell-based; conditions: human
Protocol: as §1, with “HPV-16” for “HPV-11”

in vitro = conditions: human
[5] = Viability of PBMC by XTT reduction; conditions: human, PHA-stimulated human PBMCs
HIV-1LAI = assay: HIV antiviral assay in MT-2 cells, p24 reduction; conditions: for EC50: Human immunodeficiency virus 1, MT2, 96 h
[6] = Cytotoxicity in 2.2.15 cells by neutral red uptake; conditions: human
[7] = Cytotoxicity in HFF cells in parallel to HSV-2 assay; conditions: human, […]
[8] = Cytotoxicity in HFF cells in parallel to HSV-1 assay; conditions: human, […]
[9] = African green monkey, uninfected COS7 cells
Hepatitis B virus = assay: HBV replication in 2.2.15 cells, HBV DNA blot hybridization; conditions: for EC50: Hepatitis B virus, 168 h; for Selectivity Index: hepatitis B virus, 2.2.15 cells
[10] = Cytotoxicity in HFF cells in parallel to cytomegalovirus assay; conditions: human, […]
MAD-1 strain of JC virus = assay: Antiviral effect in JC virus (MAD-1) infected COS7 cells, qPCR; conditions: for EC50: JC polyomavirus, COS-7, 168 h; for Selectivity Index: JC virus (MAD-1), COS7 cells
[11] = Antiproliferative activity, neutral red, normal human fibroblasts; conditions: normal human fibroblasts (HFF), monolayer culture
[12] = Toxicity in primary human keratinocyte raft cultures by histology
Hela (HPV-18) = assay: Antiproliferative activity, neutral red, Hela cervical cancer cells; conditions: Homo sapiens, 96 h, read-out: Cytotoxic concentration 50% (CC50) Hela (HPV-18)
Caski (HPV-16) = assay: Antiproliferative activity, neutral red, Caski cervical cancer cells; conditions: for CC50: Homo sapiens, Ca-Ski, 96 h, read-out: Cytotoxic concentration 50% (CC50) Caski (HPV-16)
[13] = human
HIV-192US727 = assay: Anti-HIV assay in human PBMC, supernatant reverse transcriptase activity; conditions: for Selectivity Index: HIV-192US727, human PBMC; for EC50: Human immunodeficiency virus 1, PBMC, 168 h
[14] = tested on: AD169 strain of human cytomegalovirus; assay: Antiviral effect in HFF cells infected with human cytomegalovirus (AD169); conditions: for EC50: Human betaherpesvirus 5, AD169, HFF, 336 h; for Selectivity Index: human cytomegalovirus (AD169), HFF cells
HPV-18 = assay: Antiviral effect in HPV-18 infected primary human keratinocyte rafts, qPCR; conditions: for Selectivity Index: HPV-18 keratinocyte rafts; for EC50: Homo sapiens, Keratinocyte
[15] = tested on: BK virus (Gardner strain); assay: Antiviral effect in HFF cells infected with BK virus (Gardner strain), qPCR; conditions: for Selectivity Index: BK virus (Gardner strain), HFF cells; for EC50: Betapolyomavirus hominis, HFF, 336 h
[16] = Effect of oral compounds on body weight in Balb-c mice; assay type: in vivo
Protocol: Compounds were administered at the indicated doses by oral gavage daily for 5 days. Weights measured before and on day 6 after 5 doses.

CCCCCCCCCCCCCCCCCCOCCOP(=O)(CO[C@H](CO)Cn1cnc2c(N)ncnc21)OCc1ccccc1 (stereo partly drawn) [Compound 218, benzyl octadecyloxyethyl 9-(S)-[3-hydroxy-2-(phosphonomethoxy)propyl] adenine]
CC50 at 72 h [1]: 2.3 ± 1.6 µM | EC50 [2]: < 0.03 µM | Selectivity Index [2]: >3330 | EC50 (HPV-11): 0.77 µM | Selectivity Index (HPV-11): >370 | CC50 at 48 h [3]: > 100 µM | EC50 (HPV-16): 0.24 µM | Selectivity Index (HPV-16): >41.7 | CC50 at 48 h [4]: > 10 µM | CC50 (in vitro): > 100 µM | CC50 at 7 days [5]: 0.23 µM | EC50 (HIV-1LAI): 0.13 ± 0.14 µM | CC50 at 7 days [6]: > 100 µM | CC50 at 3 days [7]: 6.91 µM | CC50 at 3 days [8]: 14.5 µM | CC50 at 7 days [9]: 10.2 µM | EC50 (Hepatitis B virus): 0.76 µM | Selectivity Index (Hepatitis B virus): >132 | CC50 at 14 days [10]: 7.49 µM | EC50 (MAD-1 strain of JC virus): > 4 µM | Selectivity Index (MAD-1 strain of JC virus): <2.6 | CC50 at 4 days [11]: 5.2 µM | CC50 [12]: > 10 µM | CC50 (Hela (HPV-18)): 0.029 µM | CC50 (Caski (HPV-16)): 0.055 µM | CC50 at 14 days [13]: 2.8 µM | Selectivity Index (HIV-192US727): >23.0 | EC50 (HIV-192US727): < 0.01 µM | EC50 [14]: < 0.03 µM | Selectivity Index [14]: >250 | Selectivity Index (HPV-18): >39 | EC50 (HPV-18): 0.25 µM | Selectivity Index [15]: >93 | EC50 [15]: < 0.03 µM

CCCCCCCCCCCCCCCCCCOCCOP(=O)(CO[C@H](CO)Cn1ccc(N)nc1=O)OCc1ccccc1 (stereo partly drawn) [Compound 219, benzyl octadecyloxyethyl 1-(S)-[(3-hydroxy-2-phosphonomethoxy)propyl]cytosine]
CC50 at 72 h [1]: 18 ± 3.6 µM | body weight Day 6 ([16]; 20 mg/kg/day oral gavage daily for 5 days): 19.27 ± 1.32 (6) | body weight Day 0 ([16]; 20 mg/kg/day oral gavage, before dosing): 19.03 ± 1.16 (6) | EC50 [2]: 0.09 µM | Selectivity Index [2]: >1110 | EC50 (HPV-11): 2.04 µM | Selectivity Index (HPV-11): >4.9 | CC50 at 48 h [3]: > 10 µM | EC50 (HPV-16): 2.23 µM | Selectivity Index (HPV-16): >4.48 | CC50 at 48 h [4]: > 10 µM | CC50 (in vitro): > 100 µM | CC50 at 7 days [5]: 2.87 µM | Selectivity Index (HIV-1LAI; CC50/EC50, MT-2 cells): 6.7 | EC50 (HIV-1LAI): 2.7 ± 2.1 µM | CC50 at 7 days [6]: > 100 µM | CC50 at 3 days [7]: 13.1 µM | CC50 at 3 days [8]: 19.3 µM | CC50 at 7 days [9]: 12.8 µM | EC50 (Hepatitis B virus): 0.45 µM | Selectivity Index (Hepatitis B virus): >223 | CC50 at 14 days [10]: 84.2 µM | EC50 (MAD-1 strain of JC virus): > 4 µM | Selectivity Index (MAD-1 strain of JC virus): <3.2 | CC50 at 4 days [11]: 52 µM | CC50 [12]: > 10 µM | CC50 (Hela (HPV-18)): 2.2 µM | CC50 (Caski (HPV-16)): 2 µM | fold more effective in reducing viable cell number in the cervical cancer lines than in normal, non-transformed human fibroblasts (Caski (HPV-16); cervical cancer lines (Caski, Hela) vs HFF): 23.6 fold | CC50 at 14 days [13]: 6.54 µM | Selectivity Index (HIV-192US727): >28.7 | EC50 (HIV-192US727): < 0.1 µM | EC50 [14]: < 0.03 µM | Selectivity Index [14]: >2807 | Selectivity Index (HPV-18): >9.4 | EC50 (HPV-18): 1.06 µM | Selectivity Index [15]: >218 | EC50 [15]: < 0.03 µM

From patent US10076533B2, “Acyclic nucleoside phosphonate diesters” (The Regents of the University of California, priority 2013, dated 2018)
